# Experimental data: paper PMC5573954 (Hippocampus, 2017)
# Read-outs that look alike come from different tables or passages of the source.
# Key:
# [1] = biological target: T1, rat M4 receptor (rM4) (Rattus norvegicus, UniProt P08485); experiment: GloSensor cAMP functional assay, HEK293 cells stably expressing rM4
# T1 sequence (P08485 1-478): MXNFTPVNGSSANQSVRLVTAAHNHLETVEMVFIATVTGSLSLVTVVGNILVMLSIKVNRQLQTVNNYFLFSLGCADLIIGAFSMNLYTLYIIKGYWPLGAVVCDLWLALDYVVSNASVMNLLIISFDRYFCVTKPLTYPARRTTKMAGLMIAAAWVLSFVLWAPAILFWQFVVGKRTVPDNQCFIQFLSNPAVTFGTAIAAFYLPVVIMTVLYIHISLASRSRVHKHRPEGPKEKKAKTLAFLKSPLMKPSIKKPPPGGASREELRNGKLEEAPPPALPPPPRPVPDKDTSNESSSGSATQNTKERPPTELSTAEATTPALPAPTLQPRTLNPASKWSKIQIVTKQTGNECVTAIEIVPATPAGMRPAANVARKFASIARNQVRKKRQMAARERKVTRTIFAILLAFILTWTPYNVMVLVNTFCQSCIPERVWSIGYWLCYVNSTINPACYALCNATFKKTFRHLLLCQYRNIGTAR
# [2] = biological target: hM3 (Homo sapiens, UniProt P20309); experiment: FLIPR Ca2+ functional assay, CHO K1 cells stably expressing hM3; format: cell-based
# [3] = biological target: T2, hM4 (Homo sapiens, UniProt P08173); experiment: GloSensor cAMP functional assay, HEK293 cells stably expressing hM4; conditions: for selectivity for hM4 over hM2 (fold shift of PAM EC50): hM2 EC50 versus hM4 EC50, PAM mode
# T2 sequence (P08173 1-479): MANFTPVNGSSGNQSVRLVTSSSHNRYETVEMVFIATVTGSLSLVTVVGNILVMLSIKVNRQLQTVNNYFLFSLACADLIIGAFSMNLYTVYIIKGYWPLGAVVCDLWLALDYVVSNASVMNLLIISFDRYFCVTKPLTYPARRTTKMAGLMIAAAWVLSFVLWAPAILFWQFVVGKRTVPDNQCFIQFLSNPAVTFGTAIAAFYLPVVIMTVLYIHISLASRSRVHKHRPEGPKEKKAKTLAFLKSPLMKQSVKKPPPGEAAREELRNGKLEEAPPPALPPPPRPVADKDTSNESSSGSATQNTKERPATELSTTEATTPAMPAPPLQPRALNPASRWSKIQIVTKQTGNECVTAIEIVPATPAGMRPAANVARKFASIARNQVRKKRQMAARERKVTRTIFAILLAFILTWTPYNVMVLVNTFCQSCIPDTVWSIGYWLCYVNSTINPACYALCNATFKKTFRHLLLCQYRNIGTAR
# [4] = biological target: T3, hM5 (Homo sapiens, UniProt P08912); experiment: FLIPR Ca2+ functional assay, CHO K1 cells stably expressing hM5; format: cell-based
# T3 sequence (P08912 1-532): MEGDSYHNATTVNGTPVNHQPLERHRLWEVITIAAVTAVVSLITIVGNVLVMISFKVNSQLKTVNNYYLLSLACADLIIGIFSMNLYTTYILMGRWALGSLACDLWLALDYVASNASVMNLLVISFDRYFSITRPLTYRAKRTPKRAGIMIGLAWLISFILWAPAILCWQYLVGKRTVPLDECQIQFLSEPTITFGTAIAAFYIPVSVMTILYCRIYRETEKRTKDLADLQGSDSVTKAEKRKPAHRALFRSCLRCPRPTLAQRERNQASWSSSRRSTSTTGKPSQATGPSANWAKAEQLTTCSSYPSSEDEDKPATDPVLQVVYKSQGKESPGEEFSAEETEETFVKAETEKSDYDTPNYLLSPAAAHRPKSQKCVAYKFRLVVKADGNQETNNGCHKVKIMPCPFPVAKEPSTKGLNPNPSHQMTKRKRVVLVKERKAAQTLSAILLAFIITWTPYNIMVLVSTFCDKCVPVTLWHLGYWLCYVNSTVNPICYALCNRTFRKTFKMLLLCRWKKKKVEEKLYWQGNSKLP
# [5] = tested on: SC‐evoked EPSCs in CA1 pyramidal neurons; format: cell-based, rat
# [6] = tested on: TA‐evoked EPSCs in CA1 pyramidal neurons; format: cell-based, rat
# [7] = biological target: T4, hM1 (Homo sapiens, UniProt P11229); experiment: FLIPR Ca2+ functional assay, CHO K1 cells stably expressing hM1; format: cell-based
# T4 sequence (P11229 1-460): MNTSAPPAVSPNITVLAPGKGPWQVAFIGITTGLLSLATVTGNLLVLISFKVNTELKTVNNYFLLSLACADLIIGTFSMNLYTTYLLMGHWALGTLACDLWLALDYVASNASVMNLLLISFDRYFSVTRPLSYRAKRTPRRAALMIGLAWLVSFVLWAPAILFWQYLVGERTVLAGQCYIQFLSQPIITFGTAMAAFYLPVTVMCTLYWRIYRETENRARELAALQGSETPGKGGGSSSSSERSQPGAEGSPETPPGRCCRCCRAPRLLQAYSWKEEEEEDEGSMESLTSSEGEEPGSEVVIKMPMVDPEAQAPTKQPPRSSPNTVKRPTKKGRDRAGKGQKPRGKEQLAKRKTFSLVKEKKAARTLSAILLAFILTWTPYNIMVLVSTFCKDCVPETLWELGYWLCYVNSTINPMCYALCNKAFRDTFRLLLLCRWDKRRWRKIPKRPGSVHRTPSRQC
# [8] = tested on: putative PV+ CA1 interneurons; experiment: Whole‐cell current step evoked firing of putative PV+ CA1 interneurons; format: cell-based, rat; conditions: 300 nM; n = 4; p = 0.0275
# [9] = tested on: spontaneous firing rates of CA1 neurons
# [10] = tested on: CA1 pyramidal neurons; experiment: Whole‐cell current step evoked firing of CA1 pyramidal neurons; format: cell-based, rat
# [11] = biological target: T5, hM2 (Homo sapiens, UniProt P08172); experiment: GloSensor cAMP functional assay, HEK293 cells stably expressing hM2; format: cell-based
# T5 sequence (P08172 1-466): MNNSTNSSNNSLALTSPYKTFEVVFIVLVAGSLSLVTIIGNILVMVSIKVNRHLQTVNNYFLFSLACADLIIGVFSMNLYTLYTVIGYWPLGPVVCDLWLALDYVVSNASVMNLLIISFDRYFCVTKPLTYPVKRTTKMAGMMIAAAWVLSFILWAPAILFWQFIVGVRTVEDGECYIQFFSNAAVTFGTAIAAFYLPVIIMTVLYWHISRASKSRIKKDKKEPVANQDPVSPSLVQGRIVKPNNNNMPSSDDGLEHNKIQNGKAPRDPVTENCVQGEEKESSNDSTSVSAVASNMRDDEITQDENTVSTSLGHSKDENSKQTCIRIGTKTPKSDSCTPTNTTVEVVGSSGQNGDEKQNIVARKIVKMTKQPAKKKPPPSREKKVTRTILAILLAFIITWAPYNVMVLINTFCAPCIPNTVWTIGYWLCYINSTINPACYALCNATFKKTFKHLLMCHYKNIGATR
# [12] = tested on: rat M4 receptor; conditions: ref Chan et al., 2008; cited from earlier work
# [13] = biological target: beta‐2 adrenergic receptors (Homo sapiens, UniProt P07550); experiment: Nonmuscarinic off-target functional activity: beta-2 adrenergic antagonism; format: cell-based
# [14] = biological target: 5HT2b receptors (Homo sapiens, UniProt P41595); experiment: Nonmuscarinic off-target functional activity: 5HT2b antagonism; format: cell-based
# [15] = tested on: SC‐evoked synaptic field potentials in CA1 of hippocampal slices; experiment: Extracellular field potentials evoked by SC stimulation, hippocampal slices; conditions: from fitted dose–response curve, Figure 2a
# [16] = 5 μM, end of recordings with PT‐3763, mean ± SEM
# Chain of hM3 (P20309 whole entry): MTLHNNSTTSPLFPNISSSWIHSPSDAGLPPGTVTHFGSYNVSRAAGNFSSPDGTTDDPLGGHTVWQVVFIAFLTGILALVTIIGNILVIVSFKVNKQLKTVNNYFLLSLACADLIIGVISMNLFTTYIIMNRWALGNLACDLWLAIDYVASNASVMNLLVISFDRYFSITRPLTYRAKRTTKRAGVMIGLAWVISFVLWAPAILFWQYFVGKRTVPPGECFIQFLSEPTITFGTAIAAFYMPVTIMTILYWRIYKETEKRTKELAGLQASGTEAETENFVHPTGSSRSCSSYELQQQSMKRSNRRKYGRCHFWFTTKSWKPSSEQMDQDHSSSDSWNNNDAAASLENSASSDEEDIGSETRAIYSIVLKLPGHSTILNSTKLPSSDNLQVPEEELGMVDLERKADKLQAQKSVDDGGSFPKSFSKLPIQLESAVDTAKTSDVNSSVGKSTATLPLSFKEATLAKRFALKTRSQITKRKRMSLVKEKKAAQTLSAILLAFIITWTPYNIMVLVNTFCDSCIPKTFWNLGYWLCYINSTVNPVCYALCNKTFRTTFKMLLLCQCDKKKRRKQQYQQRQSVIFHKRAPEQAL
# Chain of beta‐2 adrenergic receptors (P07550 whole entry): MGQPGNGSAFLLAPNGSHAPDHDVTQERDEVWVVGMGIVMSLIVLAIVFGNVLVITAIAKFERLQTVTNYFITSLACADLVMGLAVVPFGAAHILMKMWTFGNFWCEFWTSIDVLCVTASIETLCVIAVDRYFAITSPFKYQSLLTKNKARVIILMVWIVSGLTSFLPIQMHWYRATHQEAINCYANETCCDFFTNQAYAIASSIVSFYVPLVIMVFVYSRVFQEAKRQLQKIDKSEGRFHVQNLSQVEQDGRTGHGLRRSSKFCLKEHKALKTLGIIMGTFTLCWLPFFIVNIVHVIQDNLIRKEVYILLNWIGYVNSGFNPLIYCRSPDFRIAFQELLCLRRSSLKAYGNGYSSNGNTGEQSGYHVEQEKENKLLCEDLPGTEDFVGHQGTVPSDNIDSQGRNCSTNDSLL
# Chain of 5HT2b receptors (P41595 whole entry): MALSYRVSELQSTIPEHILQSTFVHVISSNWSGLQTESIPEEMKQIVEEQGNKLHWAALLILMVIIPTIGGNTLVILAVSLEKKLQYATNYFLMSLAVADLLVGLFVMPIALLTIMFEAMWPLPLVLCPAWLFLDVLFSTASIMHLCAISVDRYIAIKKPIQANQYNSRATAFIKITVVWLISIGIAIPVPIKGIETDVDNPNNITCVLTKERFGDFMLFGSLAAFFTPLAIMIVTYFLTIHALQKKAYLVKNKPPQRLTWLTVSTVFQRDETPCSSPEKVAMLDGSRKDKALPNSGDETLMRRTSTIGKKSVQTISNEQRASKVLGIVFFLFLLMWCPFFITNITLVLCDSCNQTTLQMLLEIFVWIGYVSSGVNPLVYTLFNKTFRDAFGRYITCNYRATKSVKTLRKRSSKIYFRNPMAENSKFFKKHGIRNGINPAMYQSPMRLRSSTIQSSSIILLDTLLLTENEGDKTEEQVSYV
smiles,measurement,setting,value
"CC(=O)OCC[N+](C)(C)C [ACh, acetylcholine]",ACh EC20,[1]; rM4 cell line,0.8 nM
same,ACh EC20,[2]; hM3 cell line,0.8 nM
same,ACh EC20,[3]; hM4 cell line,15 nM
same,ACh EC20,[4]; hM5 cell line,2 nM
N#Cc1cc2[nH]c(=O)c(=O)[nH]c2cc1[N+](=O)[O-] [CNQX],CNQX‐induced suppression of SC‐evoked responses,[5]; [16],85.2 ± 4.1%
same,CNQX‐induced suppression of TA‐evoked responses,[6]; [16],79.4 ± 4.8%
Cc1cc(F)c2[nH]c(=O)n(C3CCN(C4CCOCC4)CC3)c2c1 [GSK1034702],EC50,[7],27 nM
same,firing rates of interneurons following current step,[8],increased firing rates
same,upper z‐score asymptote of normalized spontaneous firing rates,[9]; GSK1034702 data set with VU0255035 reversal,56.3 ± 11.9
same,upper z‐score asymptote of normalized spontaneous firing rates,[9]; GSK1034702 data set with pirenzipine reversal,86.9 ± 13.6
same,spike frequency accommodation,"[10]; 300 nM, 200 pA current injection",significantly reduced
same,number of spikes evoked in response to a 200 pA injected current step,"[10]; 300 nM, p = 0.012 vs baseline",increase
same,EC50,[3],1430 nM
same,"effect on amplitude, slope, or PPR of EPSCs evoked by SC stimulation","[5]; 300 nM, 100 μM picrotoxin",no significant effect
same,"effect on amplitude, slope, or PPR of EPSCs evoked by TA stimulation","[6]; 300 nM, 100 μM picrotoxin",no significant effect
COc1nc2sc(C(=O)NC3CC3)c(N)c2c(C)c1Cl [LY2033298],EC50,"[3]; hM4, PAM mode, in the presence of an EC20 of ACh (15 nM), isoproterenol 50 nM, brackets 95% CI",41 nM
same,EC50,"[11]; hM2, PAM mode, in the presence of an EC20 of ACh (3 nM), isoproterenol 50 nM, brackets 95% CI",3280 nM
same,potency at the rat M4 receptor compared with the human,[12],much weaker
"Cc1nnc2sc(C(=O)NC3CN(c4cccnc4)C3)c(N)c2c1C [PT‐1148, 5‐amino‐3,4‐dimethyl‐N‐(1‐(pyridin‐3‐yl)azetidin‐3‐yl)thieno[2,3‐c]pyridazine‐6‐carboxamide]",upper z‐score asymptote of normalized spontaneous firing rates,"[9]; in the presence of 20 nM oxotremorine and 1 μM VU0255035, not significant (p = 0.875)",3.77 ± 23.9
same,selectivity for hM4 over hM2 (fold shift of PAM EC50),[3],536 fold
"Cc1cc(C)c2c(N)c(C(=O)NC3CN(c4cccnc4)C3)sc2n1 [PT‐3763, 3‐amino‐4,6‐dimethyl‐N‐(1‐(pyridin‐3‐yl)azetidin‐3‐yl)thieno[2,3‐b]pyridine‐2‐carboxamide]",IC50,[13],2990 nM
same,selectivity for hM4 over hM2 (fold shift of PAM EC50),[3],28 fold
"CCOC(=O)N1CCCC(N2CCC(c3cccnc3OC)CC2)CC1 (stereo not shown) [PT‐6950, ethyl 4‐(4‐(2‐methoxypyridin‐3‐yl)piperidin‐1‐yl)azepane‐1‐carboxylate]",EC50,[7],312 nM
same,upper z‐score asymptote of normalized spontaneous firing rates,"[9]; compound alone, mean ± SEM",12.0 ± 16.7
same,IC50,[14],1260 nM
same,EC50,[1],2.62 nM
same,EC50,[2],> 10000 nM
same,EC50,[4],> 10000 nM
same,EC50,[11],2880 nM
O=C(CCNS(=O)(=O)c1cccc2nsnc12)N1CCN(c2ccncc2)CC1 [VU0255035],effect on GSK1034702 induced increase in CA1 firing rates,[9]; 3 μM,reversed
same,effect on oxotremorine induced increase in spontaneous firing rates,[9]; 3 μM,partially reversed
O=C1CCCN1CC#CCN1CCCC1 [oxotremorine],upper z‐score asymptote of normalized spontaneous firing rates,"[9]; compound alone, mean ± SEM",108.2 ± 6.3
same,EC20 of oxotremorine for reduction of SC‐evoked field potentials,[15],20 nM
CN1CCN(CC(=O)N2c3ccccc3C(=O)Nc3cccnc32)CC1 [pirenzepine],effect on GSK1034702 induced increase in CA1 firing rates,[9]; 3 μM,reversed
same,effect on GSK1034702 induced increase in evoked spikes,[10]; 3 μM,reversed
same,effect on GSK1034702 induced reduction of spike frequency accommodation,[10]; 3 μM,similarly reversed
same,effect on M4 PAM induced reduction of SC‐evoked EPSC amplitude and slope,"[5]; 3 μM, applied after PTX + OXO + M4 PAM",reversed
